According to publication PMC7053711, “A G protein–coupled receptor mediates neuropeptide-induced oocyte maturation in the jellyfish Clytia” (PLoS Biology, 2020):
Entries after “also recorded” stand apart in the source; their conditions may differ. Peptide text beside a SMILES is read from it.

Columns and labels:
[1] = test system: fully grown oocytes isolated from WT gonads; assay: Oocyte maturation assay, wild-type isolated oocytes (GVBD); format: cell-based, Clytia hemisphaerica
Excerpt: (§1) Fig 4 Oocyte maturation failure in MIHR mutant medusae. Oocyte maturation assays performed using isolated gonads (A, B) or isolated oocytes (C) from MIHR mutant jellyfish compared to WT. In A and C, bar heights represent mean percentages of 3 independent experiments and error bars show standard deviations. Total gonad or oocyte numbers for each treatment are indicated in gray. (A) Spawning response of isolated gonads from WT and n5-23 female medusae. Three treatments were compared as indicated above each panel: Light: light stimulation after incubation in the dark; MIH: treatment of light-maintained gonads with 100 nM WPRPamide; cAMP: treatment of light-maintained gonads with 4 mM Br-cAMP. […] Full datasets from three independent experiments are available in S3 Data. (B) Light microscope images illustrating gonads from an equivalent experiment performed with n5-13 female MIHR mutant medusae 120 minutes after the indicated treatments. Scale bar: 500 μm. […] Full datasets from 3 independent experiments are available in S3 Data. Br-cAMP, bromoadenosine 3′,5′-cyclic monophosphate; cAMP, cyclic adenosine monophosphate; KO, knockout; MIH, maturation-inducing hormone; MIHR, MIH receptor; WT, wild-type.
(§2) Fully grown oocytes were isolated manually from dissected gonads of wild-type and MIHR KO mutant jellyfish prepared as above. Maturation assays were performed in wells of 96-well plates or small plastic petri dishes lined with 2% agarose in MFSW. Spontaneous maturation occurs at a low frequency in control oocytes. To test MIH-induced maturation, 10 μL WPRPamide from 1 μM solution in MFSW was added to a final concentration of 100 nM. In some experiments, Br-cAMP from a 20 mM stock in H2O was used at a final concentration of 4 mM. GVBD was scored at 30 minutes, every 5 minutes, depending on experiments.
(§3) Supplementary file pbio.3000614.s013.xlsx: S3 Data Numerical data corresponding to Fig 4A and 4C. The first tab collects all the raw data from 3 independent gonad spawning assays. Information corresponding to the Fisher exact tests is also shown. […] The means and standard deviations were used to prepare the graph in Fig 4C. Information corresponding to the Fisher exact tests is also shown. (XLSX) Click here for additional data file.

[2] = test system: fully grown oocytes isolated from MIHR mutant (n5-23) gonads; assay: Oocyte maturation assay, MIHR mutant isolated oocytes (GVBD); format: cell-based, Clytia hemisphaerica
Excerpt: as §1, §2, §3

hydrozoan oocytes = details: cell-permeable analogue of cAMP; ref [3],[21]; cited from earlier work
Excerpt: We performed a series of oocyte maturation and spawning assays, comparing the responses of wild-type and MIHR mutant isolated gonads and oocytes to different stimuli (Fig 4). […] I ...

[3] = test system: MIHR mutant (n5-23, n5-13) isolated female gonads; assay: Gonad spawning assay, MIHR mutant isolated gonads; set-up: species or system Clytia hemisphaerica; details: isolated MIHR mutant gonads, 4 mM Br-cAMP, washed after 5 minutes
Description: We performed a series of oocyte maturation and spawning assays, comparing the responses of wild-type and MIHR mutant isolated gonads and oocytes to different stimuli (Fig 4).
Sexually mature MIHR mutant medusae from colonies n5-13 and n5-23 and wild-type medusae were cultured on the same day–night cycle. Individual gonads were dissected in the evening after afternoon spawning. To test the light response, one group of each was transferred to 100 μL MFSW in wells of 96-well plastic plates, covered overnight, and re-exposed to white light the following day. To test responses to MIH and cAMP, other groups of dissected gonads were cultured overnight in constant light, then transferred to 96-well plastic plates for two hours. MIH was added to wells as an equal volume of 200 nM WPRPamide (GenScript) stock in MFSW was added to give a final concentration of 100 nM. Alternatively, a stock of 20 mM bromo adenosine 3′,5′cyclic monophosphate (Br-cAMP–Fluka; Sigma Aldrich) in distilled water was added to give a final concentration of 4 mM. Gonads were washed after 5 minutes incubation in Br-cAMP. Oocyte maturation was scored after 30 minutes as germinal vesicle breakdown (GVBD), i.e., visible dissolution of the oocyte nuclear membrane upon entry into M phase, which in all cases was followed by spawning about 1 hour later.
as §3

Clytia MIHR [4] = assay: Dose–response curves of Clytia MIHR, luminescence (CHO-K1 cells, Gα-16, GFP-apoaequorin); format: cell-based, Clytia hemisphaerica; set-up: key to Span (best-fit value) / Bottom (best-fit value): % activation, normalized to fitted upper plateau (100%); details: for EC50: four-parameter fit, variable slope, triplicate; for HillSlope / LogEC50: best-fit value; for Bottom / Span / Top: best-fit value (luminescence)
Description: The Clytia MIH amidated peptides are produced from two precursor genes Che-pp4 (generating multiple copies of WPRAamide, WPRYamide, and WPRPamide) and Che-pp1 (multiple copies of WPRPamide and RPRGamide).
(§4) Cell culture GPCR ligand response assays were performed as described. Briefly, CHO-K1 cells were cultured in Ham’s F12 Nut Mix medium (Thermo Fisher Scientific) with 10% foetal bovine serum. Cells were seeded in 96-well plates at approximately 10,000 cells/well and transfected the following day with pcDNA3.1(+) plasmids encoding each of the 16 candidate Clytia GPCRs (S2 Text), the promiscuous Gα-16 protein [65], and a reporter construct GFP-apoaequorin [66] (60 ng each) using the transfection reagent TurboFect (Thermo Fisher Scientific). After 2 days of expression, the medium was removed and replaced with Hank’s balanced salt solution (HBSS) supplemented with 1.8 mM Ca2+, 10 mM glucose, and […] coelenterazine h (Promega, Madison, WI). After incubation at 37 °C for 2 hours, cells were tested by adding synthetic peptides (GenScript) in HBSS supplemented with 1.8 mM Ca2^+ and 10 mM glucose. A list of all synthetic peptides used is provided in S2 Table. Luminescence was recorded for 45 seconds in a plate reader (BioTek Synergy Mx or Synergy H4; BioTek, Winooski, VT). Data were integrated over the 45-second measurement period and recorded as technical triplicates in each case. Data were normalized using the response of Platynereis FLamide receptor to 1 μM AKYFL-NH2 [28]. Dose–response curves were obtained using concentrations between 0.01 nM and 100 μM for each peptide. Data for dose–response curves were recorded in triplicate for each concentration and the experiment was repeated independently 3 times. Dose–response curves were fitted with a four-parameter curve using Prism 6 (GraphPad, La Jolla, CA) and were normalized to the calculated upper plateau values (100% activation).
Supplementary file pbio.3000614.s012.xlsx: S2 Data Numerical data corresponding to Fig 1C. The first three tabs show statistical values obtained using Prism 6 software (GraphPad, La Jolla, CA) from the raw luminescence values for 3 independent dose–response experiments. The raw luminescence values are shown, as well as the values normalized with respect to the maximum. […] MIH, maturation-inducing hormone. (XLSX) Click here for additional data file.

Clytia MIHR [5] = assay: GPCR deorphanization assay, luminescence response to peptides at 1 μM (CHO-K1 cells, Gα-16, GFP-apoaequorin); format: cell-based, Clytia hemisphaerica; details: peptide 1E-6M, normalised to Platynereis FLamide receptor + 1 μM AKYFL-NH2, n = 3
Excerpt: We used a cell culture–based GPCR deorphanization assay to identify the MIH receptor from our candidate shortlist. cDNAs for each candidate were transfected into Chinese Hamster ovary K1 (CHO-K1) cells along with the promiscuous Gα protein Gα-16, and an aequorin-GFP luminescence reporter that measures Ca^2+ mobilization downstream of this heterologous Gα protein [27, 28]. We first screened the 16 candidate Clytia GPCRs against a mixture of 33 synthetic amidated peptides (including MIHs) predicted to be generated from previously identified putative Clytia neuropeptide precursors and one additional one identified from transcriptome data. Given our imperfect knowledge of pro-peptide processing in cnidarians, some of the synthetic peptides may not correspond to endogenous peptides. Only one of the 16 GPCRs was activated by this peptide mixture. This receptor responded well to all 4 synthetic Clytia MIH tetrapeptides, as well as to related Cladonema MIH peptides that can also activate Clytia oocyte maturation, but not to other Clytia peptide mixtures or poorly active MIH penta-/tripeptides. We termed this Clytia GPCR the Maturation Inducing Hormone Receptor (MIHR). The activity of individual peptides at 1 μM to stimulate the MIHR closely matched their in vivo ability to induce oocyte maturation (Fig 1B).
as §4
Supplementary file pbio.3000614.s011.xlsx: S1 Data Numerical data corresponding to Fig 1B. Raw luminescence values obtained in triplicate for each of the neuropeptide combinations tested against the MIHR in the deorphanization assay are provided. In the right-hand table, the raw luminescence values obtained in quadruple for the positive and negative controls are provided. In the lower table, means and standard errors of the mean of the luminescence values obtained for each neuropeptide combination and controls are also shown, as well as the values normalized to the positive control, which were used to prepare the graph shown in Fig 1B. MIHR, MIH receptor. (XLSX) Click here for additional data file.

[6] = test system: Platynereis FLamide receptor; assay: Positive control of deorphanization assay, luminescence; format: cell-based; details: 1 μM AKYFL-NH2
Excerpt: Fig 1 Identification of the Clytia MIHR. (A) Diagram of a Clytia gonad showing the different tissues used for RNA-seq and GPCR expression comparisons. A total of 536 putative GPCRs identified in Clytia mixed-stages transcriptome were assigned to the three main GPCR classes (A, B, C) or “other” based on Pfam signatures. The 16 top candidate MIH GPCRs were selected based on oocyte enrichment, relatedness to known bilaterian class-A neuropeptide GPCRs, and Pfam information. (B) Luminescence response of CHO-K1 cells expressing the putative Clytia MIH GPCR treated with neuropeptide mixes lacking MIH activity (purple bars), MIH tetrapeptides identified from C. hemisphaerica (blue bars) or Cladonema radiatum (green bars), or related penta- and tripeptides previously shown to be ineffective in triggering oocyte maturation in vivo (red bars). Empty pcDNA3.1 vector was used as negative control and Platynereis FLamide and its receptor as a positive control (gray bars). Peptide concentrations all 1 μM. Absolute units of luminescence were normalized using the positive control; data are shown as mean ± standard error of the mean (n = 3). […] Luminescence values were normalized relative to the maximum of fitted dose–response curves and are shown as mean ± standard error of the mean (n = 3). Half maximal effective concentration (EC50) values were calculated as means of 3 independent experiments. […]

[7] = 100 nM WPRPamide or 4 mM Br-cAMP
[8] = log(agonist) vs. response, variable slope (four parameters), fit of third dataset

## Nc1ncnc2c1nc(Br)n2[C@@H]1O[C@@H]2COP(=O)(O)O[C@H]2[C@H]1O [Br-cAMP, bromoadenosine 3′,5′-cyclic monophosphate, reference compound]
[1]; [7]
  maturation of isolated WT oocytes: triggered maturation of WT oocytes
  time to visible GVBD, isolated WT oocytes: 20 to 30 min
[1]; cAMP (4mM BrcAMP), WT, mean of 3 replicates, Sdev 14.23
  Percentage of Oocyte maturation, Mean: 84.33
[2]; 4 mM Br-cAMP
  maturation of isolated MIHR mutant oocytes, Br-cAMP: promoted maturation of isolated fully grown MIHR mutant oocytes; also recorded: only Br-cAMP induced maturation of MIHR KO oocytes
[2]; cAMP (4mM BrcAMP), MIHR KO, mean of 3 replicates, Sdev 6.00
  Percentage of Oocyte maturation, Mean: 89.91
Hydrozoan oocytes
  hydrozoan oocyte maturation: induces hydrozoan oocyte maturation
[3]
  oocyte maturation and spawning of MIHR mutant gonads, Br-cAMP treatment: rescued meiotic maturation and spawning; also recorded: rescued the phenotype of MIHR mutant gonads, efficiently triggering oocyte maturation and spawning; also recorded: provoked oocyte maturation and spawning

## C[C@H](NC(=O)[C@H](CCCNC(=N)N)NC(=O)[C@@H]1CCCN1C(=O)[C@@H](N)Cc1c[nH]c2ccccc12)C(N)=O [WPRAa] (H-WPRA-NH2; N-terminus assumed)
Clytia MIHR [4]; dataset/experiment 1
  EC50: 140 nM
Clytia MIHR [4]; dataset/experiment 2
  EC50: 940 nM
Clytia MIHR [4]; first dataset
  HillSlope: 1.505
  LogEC50: -6.854
  Bottom: 1277
  Span: 50384
  Top: 51660
Clytia MIHR [4]; [8]
  Bottom (best-fit value): 12.04
  HillSlope (best-fit value): 1.48
  LogEC50 (best-fit value): -6.272
  Span (best-fit value): 87.97
Clytia MIHR [4]; second dataset
  HillSlope: 1.06
  LogEC50: -6.027
  Bottom: 2165
  Span: 21649
  Top: 23814
Clytia MIHR [5]
  Normalised response (to positive control), mean: 0.2465

## AKYFL-NH2 [(+) Ctrl, ligand for Platynereis FLamide receptor]
[6]
  Normalised response (to positive control), mean: 1
